From patent US6215002A, “Pyrrolopyrrolone derivatives as inhibitors of neutrophil elastase” (priority 1996, dated 2001) come the findings set out here.

Counter-ions that a name gives are not always drawn.

For this assay, the target named is T1, human neutrophil elastase (Homo sapiens, UniProt P08246).
T1 sequence (P08246 30-267): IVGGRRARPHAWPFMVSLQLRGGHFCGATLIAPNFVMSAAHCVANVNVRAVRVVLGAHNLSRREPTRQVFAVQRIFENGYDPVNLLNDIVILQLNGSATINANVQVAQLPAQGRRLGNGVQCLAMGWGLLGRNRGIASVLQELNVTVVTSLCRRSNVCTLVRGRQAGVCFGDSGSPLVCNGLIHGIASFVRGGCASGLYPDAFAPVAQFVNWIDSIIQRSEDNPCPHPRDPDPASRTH
Nature of the assay: In vitro assay of human neutrophil elastase (HNE). Conditions: 118 nM purified human neutrophil elastase, pH 8.6, 15 min incubation at 30° C., MeO-succinyl-alanyl-alanyl-prolyl-valyl-p-nitroanilide substrate; read-out: HNE IC50. In kind it is biochemical. Here is the method:
In Vitro Assays of Human Neutrophil Elastase
118 nM purified human neutrophil elastase
Suitable concentrations of compound under test diluted with water from a 10 mM stock solution in dimethylsulphoxide. Values above are final concentrations after the addition of substrate solution (see below).
The mixture above is incubated for fifteen minutes at 30° C. at which time the remaining elastase activity is measured for 10 minutes in a BioTek 340i plate-reader, after the addition of 0.6 mM MeO-succinyl-alanyl-alanyl-prolyl-valyl-p-nitroanilide. The rate of increase in absorbance at 405 nm is proportional to elastase activity. Enzyme activity is plotted against concentration of inhibitor and an IC50 determined using curve fitting software.
1. The compounds were tested in the in vitro elastase test described earlier in the description.

With `CCC[C@H]1C(=O)N(S(C)(=O)=O)[C@H]2CCN(S(=O)(=O)c3ccc(CN4CCCCC4)cc3)[C@H]12` (relative stereo) [Example 194, rel-(3R,3aR,6aS)-1-Methanesulfonyl-4-(4-piperidin-1-ylmethyl-benzenesulfonyl)-3-propyl-hexahydro-pyrrolo[3,2-b]pyrrol-2-one hydrochloride], the IC50 (as a rule, the midpoint of a concentration-inhibition curve) is 60 nM.

As to `CCC[C@H]1C(=O)N(S(=O)(=O)c2ccc3ccccc3c2)[C@H]2CCN(C(=O)CCCN3CCCCC3)[C@H]12` (relative stereo) [Example 39, rel-(3R,3aR,6aS)-1-(Naphthalene-2-sulfonyl)-4-(4-piperidin-l-yl-butyryl)-3-propyl-hexahydro-pyrrolo[3,2-b]pyrrol-2-one tartrate], the IC50 came to 189 nM.

In the case of `CC[C@H]1C(=O)N(S(=O)(=O)c2ccc3ccccc3c2)[C@H]2CCN(C(=O)OCc3ccccc3)[C@H]12` (relative stereo) [Example 4, rel-(3aS,6R,6aR)-6-Ethyl-4-(naphthalene-2-sulfonyl)-5-oxo-hexahydro-pyrrolo[3,2-b]pyrrole-1-carboxylic acid benzyl ester], the IC50 was 134 nM.

For the compound `CCC[C@H]1C(=O)N(S(=O)(=O)c2ccccc2)[C@H]2CCN(C(=O)CCCCCN3CCCCC3)[C@H]12` (relative stereo) [Example 206, rel-(3R,3aR,6aS)-1-Benzenesulfonyl-4-(6-piperidin-1-yl-hexanoyl)-3-propyl-hexahydro-pyrrol[3,2-b]pyrrol-2-one DL-tartrate], the concentration for half-maximal inhibition (IC50) was 87 nM.

On to `CCC[C@H]1C(=O)N(S(C)(=O)=O)[C@H]2CCN(C(=O)CCC(N)=O)[C@H]12` (relative stereo) [Example 95, rel-4-(4-Methanesulfonyl-5-oxo-6R-propyl-hexahydro-(3aS,6aR)-pyrrolo[3,2-b]pyrrol-1-yl)-4-oxo-butyramide], for which the half-inhibitory concentration (IC50) amounted to 84 nM.

On to `CCCCS(=O)(=O)N1C(=O)[C@H](CCC)[C@@H]2[C@@H]1CCN2S(=O)(=O)CCCN1CCCCC1` (relative stereo) [Example 167, rel-(3R,3aR,6aS)-1-(Butane-1-sulfonyl)-4-(3-piperidin-1-yl-propane-1-sulfonyl)-3-propyl-hexahydro-pyrrolo[3,2-b]pyrrol-2-one DL-tartrate], for which the concentration for half-maximal inhibition (IC50) was 38 nM.

Take `CCC[C@H]1C(=O)N(S(=O)(=O)CC)[C@H]2CCN(S(=O)(=O)CCCN3CCCCC3)[C@H]12` (relative stereo) [Example 165, rel-(3R,3aR,6aS)-1-Ethanesulfonyl-4-(3-piperidin-1-yl-propane-1-sulfonyl)-3-propyl-hexahydro-pyrrolo[3,2-b]pyrrol-2-one DL-tartrate]: the IC50 came out at 86 nM.

As for `CCC[C@H]1C(=O)N(S(C)(=O)=O)[C@H]2CCN(C(=O)c3ccc(NC(C)=O)cc3)[C@H]12` (relative stereo) [Example 120, rel-N-[4-(4-Methanesulfonyl-5-oxo-6R-propyl-hexahydro-(3aS,6aR)-pyrrolo[3,2-b]pyrrole-1-carbonyl)-phenyl]-acetamide], the IC50 worked out at 42 nM.

In the case of `CCC[C@H]1C(=O)N(S(C)(=O)=O)[C@H]2CCN(S(=O)(=O)c3ccc(CN(C)C)cc3)[C@H]12` (relative stereo) [Example 196, rel-(3R,3aR,6aS)-4-(4-Dimethylaminomethyl-benzenesulfonyl)-1-methanesulfonyl-3-propyl-hexahydro-pyrrolo[3,2-b]pyrrol-2-one hydrochloride], the IC50 was 34 nM.

`CS(=O)(=O)N1C(=O)[C@H](C2CC2)[C@@H]2[C@@H]1CCN2C(=O)/C=C/CN1CCCCC1` (relative stereo) [Example 257, rel-(3R,3aR,6aS)-3-Cyclopropyl-1-methanesulfonyl-4-(4-piperidin-1-yl-but-2E-enoyl)-hexahydro-pyrrolo[3,2-b]pyrrol-2-one hydrochloride]: the IC50 was found to be 62 nM.

As to `CC(C)[C@H]1C(=O)N(S(C)(=O)=O)[C@H]2CCN(S(=O)(=O)c3ccc(N)cc3)[C@H]12` (relative stereo) [Example 237, rel-(3R,3aR,6aS)-4-(4-Amino-benzenesulfonyl)-3-isopropyl-1-methanesulfonyl-hexahydro-pyrrolo[3,2-b]pyrrol-2-one], the IC50 is 29 nM.

Regarding `CCC[C@H]1C(=O)N(S(C)(=O)=O)[C@H]2CCN(S(=O)(=O)c3ccc(C(=O)N(C)C)cc3)[C@H]12` (relative stereo) [Example 126, rel-4-(4-Methanesulfonyl-5-oxo-6R-propyl-hexahydro-(3aS,6aR)-pyrrolo[3,2-b]pyrrole-1-sulfonyl)-N,N-dimethyl-benzamide], the 50% inhibitory concentration (IC50) amounted to 10 nM.

For `CCC[C@H]1C(=O)N(S(C)(=O)=O)[C@H]2CCN(S(=O)(=O)c3cccc(C(F)(F)F)c3)[C@H]12` (relative stereo) [Example 223, rel-(3R,3aR,6aS)-1-Methanesulfonyl-3-propyl-4-(3-trifluoromethyl-benzenesulfonyl)-hexahydro-pyrrolo[3,2-b]pyrrol-2-one], the IC50 was found to be 62 nM.

On to `CCC[C@H]1C(=O)N(S(=O)(=O)c2ccccn2)[C@H]2CCN(C(=O)CCN3CCCCC3)[C@H]12` (relative stereo) [Example 171, rel-(3R,3aR,6aS)-4-(3-Piperidin-1-yl-propionyl)-3-propyl-1-(pyridine-2-sulfonyl)-hexahydro-pyrrolo[3,2-b]pyrrol-2-one hydrochloride], for which the IC50 came out at 39 nM.

As to `CCC[C@H]1C(=O)N(S(C)(=O)=O)[C@H]2CCN(C(=O)CN3CCOCC3)[C@H]12` (relative stereo) [Example 107, rel-(3R,3aR,6aS)-1-Methanesulfonyl-4-morpholin-4-yl-acetyl)-3-propyl-hexahydro-pyrrolo[3,2-b]pyrrol-2-one hydrochloride], the IC50 was found to be 143 nM.

As to “rel-(3aS,6R,6aR)-6-Allyl-4-benzylsulfamoyl-5-oxo-hexahydro-pyrrolo[3,2-b]pyrrole-1-carboxylic acid benzyl ester [Example 19]”, the IC50 was found to be 5230 nM.

`CCC[C@H]1C(=O)N(S(=O)(=O)c2cccc3nsnc23)[C@H]2CCN(C(=O)CCN3CCCCC3)[C@H]12` (relative stereo) [Example 168, rel-(3R,3aR,6aS)-1-(Benzo[1,2,5]thiadiazole-4-sulfonyl)-4-(3-piperidin-1-yl-propionyl)-3-propyl-hexahydro-pyrrolo[3,2-b]pyrrol-2-one DL-tartrate]: the IC50 came out at 208 nM.

Take `CCC[C@H]1C(=O)N(S(C)(=O)=O)[C@H]2CCN(S(=O)(=O)CCCN3CCN(C)CC3)[C@H]12` (relative stereo) [Example 10, rel-(3R,3aR,6aS)-1-Methanesulfonyl-4-[3-(4-methyl-piperazin-1-yl)-propane-1-sulfonyl]3-propyl-hexahydro-pyrrolo[3,2-b]pyrrol-2-one dihydrochloride]: the half-inhibitory concentration (IC50) worked out at 39 nM.

`CCC[C@H]1C(=O)N(S(=O)(=O)c2ccc(C(F)(F)F)cc2)[C@H]2CCN(C(=O)CCCCCN3CCCCC3)[C@H]12` (relative stereo) [Example 202, rel-(3R,3aR,6aS)-4-(6-Piperidin-1-yl-hexanoyl)-3-propyl-1-(4-trifluoromethyl-benzenesulfonyl)-hexahydro-pyrrolo[3,2-b]pyrrol-2-one DL-tartrate]: the IC50 stood at 38 nM.

`CO[C@H]1C(=O)N(S(C)(=O)=O)[C@H]2CCN(C(=O)OCc3ccccc3)[C@H]12` (relative stereo) [Example 156, rel-(3aS,6R,6aS)-4-Methanesulfonyl-6-methoxy-5-oxo-hexahydro-pyrrolo[3,2-b]pyrrole-1-carboxylic acid benzyl ester]: the IC50 stood at 160 nM.

For `C=CC[C@H]1C(=O)N(S(=O)(=O)/C=C/c2ccccc2)[C@H]2CCN(C(=O)OCc3ccccc3)[C@H]12` (relative stereo) [Example 44, rel-(3aS,6R,6aR)-6-Allyl-5-oxo-4-(2-phenyl-(E)-ethenesulfonyl)-hexahydro-pyrrolo[3,2-b]pyrrole-1-carboxylic acid benzyl ester], the IC50 came out at 94 nM.

Take `CCC[C@H]1C(=O)N(S(C)(=O)=O)[C@H]2CCN(S(=O)(=O)c3ccc(CN4CCCCCC4)cc3)[C@H]12` (relative stereo) [Example 195, rel-(3R,3aR,6aS)-4-(4-Azepin-1-ylmethyl-benzenesulfonyl)-1-methanesulfonyl-3-propyl-hexahydro-pyrrolo[3,2-b]pyrrol-2-one hydrochloride]: the IC50 stood at 68 nM.

For the compound `CCC[C@H]1C(=O)N(S(C)(=O)=O)[C@H]2CCN(C(=O)/C=C/C(=O)N3CCN(C)CC3)[C@H]12` (relative stereo) [Example 130, rel-(3R,3aR,6aS)-1-(4-Methanesulfonyl-5-oxo-6-propyl-hexahydro-pyrrolo[3,2-b]pyrrol-1-yl)-4-(4-methyl-piperazin-1-yl)-but-2E-ene-1,4-dione hydrochloride], the IC50 worked out at 47 nM.

On to `CCC[C@H]1C(=O)N(S(=O)(=O)CC(F)(F)F)[C@H]2CCN(C(=O)CCN3CCCCC3)[C@H]12` (relative stereo) [Example 164, rel-(3R,3aR,6aS)-4-(3-Piperidin-1-yl-propionyl)-3-propyl-1-(2,2,2-trifluoro-ethanesulfonyl)-hexahydro-pyrrolo[3,2-b]pyrrol-2-one DL-tartrate], for which the IC50 was found to be 413 nM.
